According to patent US20240408057A1, “Composition for preventing or treating cachexia and muscle loss” (METAFINES.CO.LTD., priority 2023, published 2024):
Read-outs that look alike come from different tables or passages of the source.

Columns and labels:
PDK-4 [1] = assay: PDK-4 expression (Western blot) in CCM-treated C2C12 myotubes; type: cell-based, mouse
Method: (§1) C2C12 cell line was dispensed into a 6-well plate at 4.0×10^5 cells/well and cultured in DMEM medium containing 10% fetal bovine serum (FBS) under 37° C. and 5% CO2 conditions for one day. When the cell density reached about 80%, the medium was replaced with a differentiation medium and the cells were cultured for additional 3 days. […] After culturing for 72 hours, the cells were collected and analyzed for PDK-4, which is a target marker, by Western blot and the results are summarized in FIG. 6.
(§2) A C2C12 cell line was dispensed into a 6-well plate at 4.0×10^5 cells/well, and then cultured in DMEM medium containing 10% fetal bovine serum (FBS) under 37° C. and 5% CO2 conditions for one day. When the cell density reached about 80%, the medium was replaced with a differentiation medium and the cells were cultured for additional 3 days.
Subsequently, MuRF1, Atrogin1, MyHC, Myogenin (muscle markers) and Calpain 3, PDK-4, and GDF-15 (other target markers for muscle related disease) were analyzed using Western blot, and the relative expression levels for the markers are shown in FIGS. 26 and 28.

Calpain 3 = Calpain 3 expression (Western blot) in CCM-treated C2C12 myotubes; type: cell-based, mouse
Method: as §1
The experiment was performed in the same manner as in Experimental Example 3-1, except that Calpain 3 was analyzed as a target marker for Western blot, and the results are summarized in FIG. 7.
as §2

Atrogin1 = Atrogin1 expression (Western blot) in CCM-treated C2C12 myotubes; type: cell-based, mouse; settings: 72 hours, compared to other experimental groups (components alone and in combination)
Method: A C2C12 cell line was dispensed into a 6-well plate at 4.0×10^5 cells/well, and then cultured in DMEM medium containing 10% fetal bovine serum (FBS) under 37° C. and 5% CO2 conditions for one day. When the cell density reached about 80%, the medium was replaced with a differentiation medium and the cells were cultured for additional 3 days. After confirming completion of differentiation of the cells, the cells were treated with a mixture, in which the differentiation medium and cancer-cell conditioned medium (CCM) were mixed at a 1:1 ratio, to form a control group, and simultaneously, a test group was set up by treating with the calcium salts of Preparation Examples 1 to 3 according to three predetermined concentrations.
as §2

[2] = Drug concentration in blood and pharmacokinetics factors after IV and PO administration; type: in vivo; settings: SD rats
Method: After the administration of each individual rat, blood was collected according to the elapsed time (0 to 48 hours), centrifuged, and the concentration of the administered drug in the blood and the pharmacokinetic factors (PK parameter) of the obtained plasma were analyzed through LC/MS/MS analysis, and the results are summarized in Table 1 below.

MuRF1 = MuRF1 expression in mouse muscle tissue, CT26 cachexia model; type: in vivo, Balb/c mice; settings: CT26 Balb/c cachexia model, 21 days; G4 PO 200 mpk, G5 IV 100 mpk, G6 IV 200 mpk; vs vehicle control G2
MyHC = MyHC expression in mouse muscle tissue, CT26 cachexia model; type: in vivo, Balb/c mice; settings: CT26 Balb/c cachexia model, 21 days; G4 PO 200 mpk, G5 IV 100 mpk, G6 IV 200 mpk; vs vehicle control G2
Myogenin = Myogenin expression in mouse muscle tissue, CT26 cachexia model; type: in vivo, Balb/c mice; settings: CT26 Balb/c cachexia model, 21 days
PDK-4 [3] = settings: CT26 Balb/c cachexia model, 21 days
Text: The mice were sacrificed, and the skeletal muscle in the quadriceps was extracted during autopsy, and tissue was homogenized, and proteins were extracted through RIPA lysis buffer, followed by Western blot analysis.
In FIG. 47, each group represents the following.

lactate = assay: Lactate in mouse blood, CT26 cachexia model; type: in vivo, Balb/c mice; settings: CT26 Balb/c cachexia model, 21 days; G4 PO 200 mpk, G5 IV 100 mpk, G6 IV 200 mpk; vs vehicle control G2
Method: The mice were sacrificed, and IL-1β and lactate were analyzed using the blood serum collected at autopsy, and the results are summarized in FIGS. 48A and 48B.
In FIG. 48, each group represents the following.

[4] = Inhibition of weight loss in cancer cachexia animal model; type: in vivo, Balb/c mice; settings: CT26 Balb/c cachexia model, G6 IV 200 mpk, p<0.05
Text: In FIG. 49, each group represents the following.

[5] = test system: skeletal muscle (gastrocnemius, quadriceps, and soleus); settings: CT26 Balb/c cachexia model, 21 days
Method: A CT26 mouse colorectal cancer cell line was subcutaneously transplanted into Balb/c mice to construct a syngeneic model, and the calcium salt (Asc-Ca-DCA) of Preparation
Example 1 was administered to the mice for a total of 21 days. The mice were sacrificed, and three types of skeletal muscle (gastrocnemius, quadriceps, and soleus) were extracted at autopsy, and histopathological analysis was performed. Cross-sectional images of muscle tissue were obtained, and the muscle fiber cross-sectional area (CSA) was measured, and the results are summarized in FIGS. 50 to 52.
In FIGS. 50 to 52, each group represents the following. […] Scale bars inserted in A to F of FIGS. 50 to 52 represent a horizontal length of 100 μm.

Rotarod-treadmill test = type: in vivo, Balb/c mice; settings: CT26 Balb/c cachexia model; G6 IV 200 mpk
Method: After the animal was carefully placed on a Rotarod-treadmill (JD-A-07RA5, B.S Technolab Inc., Korea), and the measurement was made for 300 seconds while increasing the rotation speed from 4 rpm to 40 rpm at regular intervals and, and the results are summarized in FIG. 53A.

[6] = C2C12 myotubes, differentiation medium:CCM 1:1, 72 hours, three predetermined concentrations, vs CCM control
[7] = PO 2,000 mg/kg (1,000 mg/kg, BID), 1 day
[8] = PO 2,000 mg/kg (1,000 mg/kg, BID), 6 days
[9] = G4 PO 200 mpk, G5 IV 100 mpk, G6 IV 200 mpk, vs vehicle control G2
[10] = G4 to G6, compared to G3 megestrol 125 mpk

Structure (SMILES): O=C([O-])C(Cl)Cl.O=C1OC(C(O)CO)C([O-])=C1O.[Ca+2] (stereo not shown) [Preparation Example 1, calcium salts of ascorbic acid and dichloroacetic acid]
- expression of PDK-4 (PDK-4 [1]; C2C12 myotubes + CCM, 72 hours, comparison experiment with components alone and in combination): inhibited
- expression level of PDK-4 (PDK-4 [1]; [6]): expression was inhibited
- expression level of Calpain 3 (Calpain 3; C2C12 myotubes + CCM, 72 hours, compared to other experimental groups (components alone and in combination)): higher expression level
- expression level of Calpain 3 (Calpain 3; [6]): decrease in expression was inhibited
- expression of Atrogin1 (Atrogin1): excellent effect of inhibiting the increase of expression
- AUClast ([2]; IV 200 mg/kg, 1 day): 19770 ng·h/mL
- Cmax ([2]; IV 200 mg/kg, 1 day): 30240 ng/mL
- Tmax ([2]; IV 200 mg/kg, 1 day): 0.25 h
- t1/2 ([2]; IV 200 mg/kg, 1 day): 0.27 h
- AUClast ([2]; IV 200 mg/kg, 6 days): 7980 ng·h/mL
- Cmax ([2]; IV 200 mg/kg, 6 days): 2700 ng/mL
- Tmax ([2]; IV 200 mg/kg, 6 days): 0.00 h
- t1/2 ([2]; IV 200 mg/kg, 6 days): 2.72 h
- AUClast ([2]; PO 200 mg/kg, 1 day): 38780 ng·h/mL
- Cmax ([2]; PO 200 mg/kg, 1 day): 23910 ng/mL
- Tmax ([2]; PO 200 mg/kg, 1 day): 0.50 h
- t1/2 ([2]; PO 200 mg/kg, 1 day): 0.59 h
- AUClast ([2]; PO 200 mg/kg, 6 days): 34620 ng·h/mL
- Cmax ([2]; PO 200 mg/kg, 6 days): 6260 ng/mL
- Tmax ([2]; PO 200 mg/kg, 6 days): 0.00 h
- t1/2 ([2]; PO 200 mg/kg, 6 days): 2.72 h
- AUClast ([2]; PO 500 mg/kg, 1 day): 353650 ng·h/mL
- Cmax ([2]; PO 500 mg/kg, 1 day): 66440 ng/mL
- Tmax ([2]; PO 500 mg/kg, 1 day): 1.50 h
- t1/2 ([2]; PO 500 mg/kg, 1 day): 4.14 h
- AUClast ([2]; PO 500 mg/kg, 6 days): 147850 ng·h/mL
- Cmax ([2]; PO 500 mg/kg, 6 days): 21280 ng/mL
- Tmax ([2]; PO 500 mg/kg, 6 days): 0.00 h
- t1/2 ([2]; PO 500 mg/kg, 6 days): 5.58 h
- AUClast [2, 7]: 889770 ng·h/mL
- Cmax [2, 7]: 130920 ng/mL
- Tmax [2, 7]: 1.75 h
- t1/2 [2, 7]: 5.64 h
- AUClast [2, 8]: 575250 ng·h/mL
- Cmax [2, 8]: 77200 ng/mL
- Tmax [2, 8]: 0.00 h
- t1/2 [2, 8]: 3.11 h
- expression level of MuRF1 in quadriceps (MuRF1): decrease in the expression levels
- expression level of MyHC in quadriceps (MyHC): increase in the expression levels
- expression level of Myogenin in quadriceps (Myogenin; [9]): increase in the expression levels
- expression of Myogenin in quadriceps (Myogenin; G4 to G6, compared to G3 megestrol 125 mpk oral): increasing the expression
- expression level of PDK-4 in quadriceps (PDK-4 [3]; [9]): decrease in the expression level
- expression level of PDK-4 in quadriceps (PDK-4 [3]; [10]): excellent effect of reducing the expression level
- lactate in blood serum (lactate): decrease in the expression levels
- weight increase compared to G2 ([4]; 17th day): about 6%
- weight increase compared to G2 ([4]; 20th day): ~13%
- cross-sectional area of muscle tissue (gastrocnemius, quadriceps, soleus) [5, 9]: increased the cross-sectional area
- cross-sectional area of muscle tissue (gastrocnemius, quadriceps, soleus) [5, 10]: level similar
- Rotarod-treadmill test improvement compared to G2 (Rotarod-treadmill test): about 24%
